Data on 28 compounds can be found in patent US8143244B2, “Cyclopropyl fused indolobenzazepine HCV NS5B inhibitors” (Bristol-Myers Squibb Company, priority 2009, dated 2012).

The target in the assay is T1, HCV NS5B (Hepatitis C virus genotype 1b, UniProt Q9WMX2).
T1 construct: The protein was expressed with an 18 amino acid C-terminal truncation to enhance the solubility; made in house; host or cells: E. coli BL21(DE3)
Nature of the assay: HCV NS5B RdRp enzyme assay. The class given is biochemical. The settings on record: HCV NS5B RdRp genotype 1b. An outline of the steps: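 Modified format: 14 nM C-terminally truncated (Δ18) genotype 1b NS5B added to compound before template (0.2 nM polyA), 3H-UTP (0.6 μCi, 0.29 μM) and oligo-dT12 primer (20 nM) precaptured on SPA beads; 4 h, 30° C. Standard format: 28 nM enzyme, 6 nM template, 180 nM primer, 60 min, 30° C, SPA read-out. IC50 from seven concentrations, 2% DMSO.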

T1 sequence (Q9WMX2 2420-2992): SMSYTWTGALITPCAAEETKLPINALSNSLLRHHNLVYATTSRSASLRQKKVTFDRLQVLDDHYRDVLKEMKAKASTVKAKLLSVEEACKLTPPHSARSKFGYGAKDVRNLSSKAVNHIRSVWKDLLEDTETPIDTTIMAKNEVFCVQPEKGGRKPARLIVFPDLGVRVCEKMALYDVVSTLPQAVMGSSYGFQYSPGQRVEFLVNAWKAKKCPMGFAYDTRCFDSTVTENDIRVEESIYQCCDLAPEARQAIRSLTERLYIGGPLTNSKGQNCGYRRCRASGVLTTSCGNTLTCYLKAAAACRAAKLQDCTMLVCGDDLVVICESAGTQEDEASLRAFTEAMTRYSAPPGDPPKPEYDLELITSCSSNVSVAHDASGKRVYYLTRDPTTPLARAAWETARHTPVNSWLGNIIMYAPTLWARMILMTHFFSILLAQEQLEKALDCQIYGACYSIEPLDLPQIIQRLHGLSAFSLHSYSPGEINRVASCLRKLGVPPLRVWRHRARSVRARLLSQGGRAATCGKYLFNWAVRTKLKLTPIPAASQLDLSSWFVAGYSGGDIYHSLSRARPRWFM

Usually IC50 stands for the point on the concentration scale where inhibition reaches its midpoint. Low values mean inhibition by little substance, high ones a need for much substance. As to `COc1ccc2c(c1)[C@@H]1C[C@]1(C(=O)N1CC34CN(C)CC3(CN(C)C4)C1)Cn1c-2c(C2CCCCC2)c2ccc(C(=O)NS(=O)(=O)C(C)C)cc21` (stereo partly shown), the IC50 (Table 1) was in the range of 1.9 to 500 nM.

Consider `COc1ccc2c(c1)[C@@H]1C[C@]1(C(=O)N1CC34COCC3(C1)CN(C1CC1)C4)Cn1c-2c(C2CCCCC2)c2ccc(C(=O)NS(=O)(=O)C(C)C)cc21` (stereo partly shown), for which the IC50 (Table 1) fell in the range of 2.5 to 500 nM.

The compound `COc1ccc2c(c1)[C@@H]1C[C@]1(C(=O)N1CC34COCC3(C1)N(C(C)=O)C4)Cn1c-2c(C2CCCCC2)c2ccc(C(=O)NS(=O)(=O)C(C)C)cc21` (stereo partly shown) [drawing 73] gave a 50% inhibitory concentration (IC50) (Table 1) of 1.9 to 500 nM.

As for `CCN1CC23COCC2(C1)CN(C(=O)[C@]12C[C@H]1c1cc(OC)ccc1-c1c(C4CCCCC4)c4ccc(C(=O)NS(=O)(=O)C(C)C)cc4n1C2)C3` (stereo partly shown), the IC50 (Table 1) fell in the range of 1.9 to 500 nM.

`COc1ccc2c(c1)C1CC1(C(=O)N1CC34CN(C)CC3(CN(C)C4)C1)Cn1c-2c(C2CCCCC2)c2ccc(C(=O)NS(=O)(=O)N(C)C)cc21` (stereo not shown) yielded an IC50 (Table 1) of 1.9 to 500 nM.

`COc1ccc2c(c1)[C@@H]1C[C@]1(C(=O)N1CC34COCC3(C1)N(C(C)=O)C4)Cn1c-2c(C2CCCCC2)c2ccc(C(=O)NS(=O)(=O)N(C)C)cc21` (stereo partly shown) yielded a half-maximal inhibitory concentration (IC50) (Table 1) of 1.9 to 500 nM.

The compound `COc1ccc2c(c1)C1CC1(C(=O)N1CC34COCC3(CN(C)C4)C1)Cn1c-2c(C2CCCCC2)c2ccc(C(=O)NS(=O)(=O)N(C)C)cc21` (stereo not shown) [drawing 106] displayed a half-inhibitory concentration (IC50) (Table 2) of 8.79 nM.

In the case of `COc1ccc2c(c1)C=C(C(=O)N1CC34CNCC3(COC4)C1)Cn1c-2c(C2CCCCC2)c2ccc(C(=O)NS(=O)(=O)C3CC3)cc21` (stereo not shown), the IC50 (Table 1) was 1.9 to 500 nM.

For the compound `COc1ccc2c(c1)C=C(C(=O)N1CC34COCC3(CN(C)C4)C1)Cn1c-2c(C2CCCCC2)c2ccc(C(=O)NS(=O)(=O)C3CC3)cc21` (stereo not shown), the concentration for half-maximal inhibition (IC50) (Table 1) was 1.9 to 500 nM.

`COc1ccc2c(c1)[C@@H]1C[C@]1(C(=O)N1CC34CNCC3(COC4)C1)Cn1c-2c(C2CCCCC2)c2ccc(C(=O)NS(=O)(=O)C(C)C)cc21` (stereo partly shown) registered a 50% inhibitory concentration (IC50) (Table 1) of 1.9 to 500 nM.

For `COc1ccc2c(c1)[C@@H]1C[C@]1(C(=O)N1CC34COCC3(CN(C)C4)C1)Cn1c-2c(C2CCCCC2)c2ccc(C(=O)NS(=O)(=O)C(C)C)cc21` (stereo partly shown), the concentration for half-maximal inhibition (IC50) (Table 1) fell in the range of 1.9 to 500 nM.

Compound `COc1ccc2c(c1)CC(C(=O)N1CC34COCC3(CN(C)C4)C1)Cn1c-2c(C2CCCCC2)c2ccc(C(=O)NS(=O)(=O)C3CC3)cc21` (stereo not shown) showed a concentration for half-maximal inhibition (IC50) (Table 1) of 1.9 to 500 nM.

`COc1ccc2c(c1)C1CC1(C(=O)N1CC34CNCC3(CN(C)C4)C1)Cn1c-2c(C2CCCCC2)c2ccc(C(=O)NS(=O)(=O)N(C)C)cc21` (stereo not shown) yielded an IC50 (Table 1) of 1.9 to 500 nM.

Compound `COc1ccc2c(c1)[C@@H]1C[C@]1(C(=O)N1CC34COCC3(C1)N(C(C)=O)C4)Cn1c-2c(C2CCCCC2)c2ccc(C(=O)NS(=O)(=O)C(C)C)cc21` (stereo partly shown) [drawing 109] yielded an IC50 (Table 2) of 3.1 nM.

In the case of `COc1ccc2c(c1)C1CC1(C(=O)N1CC34COCC3(CN(C)C4)C1)Cn1c-2c(C2CCCCC2)c2ccc(C(=O)NS(=O)(=O)N(C)C)cc21` (stereo not shown) [drawing 61], under “Table 1”, the half-inhibitory concentration (IC50) was in the range of 1.9 to 500 nM.

Turning to `COc1ccc2c(c1)C1CC1(C(=O)N1CC34COCC3(CN(C(C)=O)C4)C1)Cn1c-2c(C2CCCCC2)c2ccc(C(=O)NS(=O)(=O)CC(C)C)cc21` (stereo not shown), the IC50 (Table 1) lay in the range of 1.9 to 500 nM.

For the compound `COc1ccc2c(c1)CC(C(=O)N1CC34CN(C)CC3(CN(C)C4)C1)Cn1c-2c(C2CCCCC2)c2ccc(C(=O)NS(=O)(=O)N(C)C)cc21` (stereo not shown), where the note is “Table 1”, the half-inhibitory concentration (IC50) lay within 1.9 to 500 nM.

`COc1ccc2c(c1)C=C(C(=O)N1CC34CN(C)CC3(CN(C)C4)C1)Cn1c-2c(C2CCCCC2)c2ccc(C(=O)NS(=O)(=O)N(C)C)cc21` (stereo not shown) displayed an IC50 (Table 1) of 1.9 to 500 nM.

For the setting “Table 1”, `COc1ccc2c(c1)C=C(C(=O)N1CC34COCC3(CN(C)C4)C1)Cn1c-2c(C2CCCCC2)c2ccc(C(=O)NS(=O)(=O)N(C)C)cc21` (stereo not shown) showed an IC50 of 1.9 to 500 nM.

`COc1ccc2c(c1)C1CC1(C(=O)N1CC34CNCC3(COC4)C1)Cn1c-2c(C2CCCCC2)c2ccc(C(=O)NS(=O)(=O)N(C)C)cc21` (stereo not shown): the IC50 (Table 1) was in the range of 1.9 to 500 nM.

Under “Table 1”, `COc1ccc2c(c1)[C@@H]1C[C@]1(C(=O)N1CC34CNCC3(CN(C)C4)C1)Cn1c-2c(C2CCCCC2)c2ccc(C(=O)NS(=O)(=O)C(C)C)cc21` (stereo partly shown) registered an IC50 of 1.9 to 500 nM.

`COc1ccc2c(c1)CC(C(=O)N1CC34CNCC3(COC4)C1)Cn1c-2c(C2CCCCC2)c2ccc(C(=O)NS(=O)(=O)C3CC3)cc21` (stereo not shown) gave an IC50 (Table 1) of 1.9 to 500 nM.

For `COc1ccc2c(c1)[C@@H]1C[C@]1(C(=O)N1CC34COCC3(C1)N(C(C)=O)C4)Cn1c-2c(C2CCCCC2)c2ccc(C(=O)NS(=O)(=O)C(C)C)cc21` (stereo partly shown) [drawing 110], the 50% inhibitory concentration (IC50) (Table 2) is 2.4 nM.

For the compound `COc1ccc2c(c1)C=C(C(=O)N1CC34CNCC3(COC4)C1)Cn1c-2c(C2CCCCC2)c2ccc(C(=O)NS(=O)(=O)N(C)C)cc21` (stereo not shown), the IC50 (Table 1) lay in the range of 1.9 to 500 nM.

Turning to `COc1ccc2c(c1)C1CC1(C(=O)N1CC34CNCC3(CN(C)C4)C1)Cn1c-2c(C2CCCCC2)c2ccc(C(=O)NS(=O)(=O)C3CC3)cc21` (stereo not shown), the 50% inhibitory concentration (IC50) (Table 2) amounted to 7.8 nM.

With `COc1ccc2c(c1)C=C(C(=O)N1CC34COCC3(C1)N(C(C)=O)C4)Cn1c-2c(C2CCCCC2)c2ccc(C(=O)NS(=O)(=O)N(C)C)cc21` (stereo not shown), the IC50 (Table 1) lay in the range of 1.9 to 500 nM.

In turn, `COc1ccc2c(c1)CC(C(=O)N1CC34CNCC3(CN(C)C4)C1)Cn1c-2c(C2CCCCC2)c2ccc(C(=O)NS(=O)(=O)C3CC3)cc21` (stereo not shown) returned an IC50 (Table 1) of 1.9 to 500 nM.

Take `C=C(C)S(=O)(=O)NC(=O)c1ccc2c(C3CCCCC3)c3n(c2c1)C[C@@]1(C(=O)N2CC45COCC4(CN(C)C5)C2)C[C@H]1c1cc(OC)ccc1-3` (stereo partly shown): the concentration for half-maximal inhibition (IC50) (Table 1) lay in the range of 1.9 to 500 nM.
